Among the data in PubChem BioAssay AID463074 (Broad Institute, 2010) are AC50 values, retold here.

The structures appear in SMILES notation. Activity calls are given as the source filed them.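 The calls were made as follows: active = AC50 no more than tenfold above the top dose tested, or full inhibition at every dose with a flat fit (cut at about 19 µM in these data); inconclusive = flat curve fit with inhibition between 30% and 70%, or poor fit; inactive = AC50 more than tenfold above the top dose tested.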

Usually AC50 stands for the concentration giving half of the maximal activity seen.

This test deals with HMLE_sh_eGFP viability, CellTiter-Glo luminescence, 72 h. The test can be described thus: viability loss of HMLE_sh_eGFP cells – cell-based, luminescence, counter-screen for HMLE_sh_ECad selective toxicity project, dose response (AID 463074).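 Also: counterscreen control line to flag general toxicity for the HMLE_sh_ECad screen; potency for loss of viability as luminescence drops below DMSO wells.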 In general terms: A counterscreen serves to expose hits that act by an unwanted route or on another target.
Consider `C[C@]12CC[C@H](O)C[C@H]1CC[C@@H]1[C@@H]2CC[C@]2(C)[C@@H](C3=CC(=O)OC3)CC[C@]12O`, for which the AC50 was 0.234 µM.
With `OC1CCN(c2cc(-c3ccccc3)nc3cc(-c4ccc(F)cc4)nn23)CC1`, the AC50 is 7.31 µM.
The figure for `C/C(=N\NC(=O)c1nnn(-c2nonc2N)c1CN1CCCCC1)c1ccccc1O` is 4.26 µM.
Then `O=C(NNc1ccc(-c2csnn2)cc1)c1cc(Cl)cc(Cl)c1`, with 3.02 µM; and `CN(C)C(CNS(=O)(=O)c1ccc2ccccc2c1)c1ccccc1` (stereo not given), with > 19.5 µM (inactive); and `Cc1nnc(-c2ccc(Oc3ccc(Cl)cc3)c([N+](=O)[O-])c2)o1`, with 0.33 µM.
The figure for `COc1ccccc1/C=C1\SC(=O)N(CCC(=O)NCCCn2ccnc2)C1=O` is 19.5 µM; for `CN1CCN(S(=O)(=O)c2cccc(C(=O)Nc3cc(C(F)(F)F)ccc3N3CCCCC3)c2)CC1` it is 5.34 µM.
As for `c1ccc(-c2cc3c(NCC4COc5ccccc5O4)ncnc3s2)cc1` (stereo not given), the half-maximal activity concentration (AC50) was 4.99 µM.
In the case of `COc1ccc(/C=C2\C(=O)c3ccccc3OC2c2ccccc2)cc1` (stereo not given), the AC50 was 1.38 µM.
Then `CC(C)(C)c1ccc(NC(=O)N2CCCN(c3c(Cl)cncc3Cl)CC2)cc1`, with 2.85 µM; and `Cc1ccc(S(=O)(=O)Nc2ccc(-c3csc(-c4ccccc4)n3)cc2)cc1`, with 6.85 µM.
As for `CNC(=O)c1c(NC(=O)c2ccc(S(=O)(=O)N3CCCc4ccccc43)cc2)sc2c1CCN(C)C2`, the AC50 was 0.987 µM.
In the case of `O=Nc1c(O)n(Cc2ccc(Cl)cc2Cl)c2ccccc12`, the AC50 was 7.05 µM.
The figure for `C=C(CC1([C@@H](NP(=O)(c2ccccc2)c2ccccc2)[C@H]2C[C@@H]2CCCC)CC1)c1ccccc1` is 4.57 µM; for `Oc1ccccc1/C=N/NP(=S)(c1ccccc1)c1ccccc1` it is 6.98 µM.
The figure for `CCc1ccc(-c2cc(C(=O)N3N=C(C(F)F)CC3(O)C(F)F)c3ccccc3n2)cc1` (stereo not given) is 6.4 µM.
On to `COc1ccc(C=C2C=C(C(C)(C)C)C(=O)C(C(C)(C)C)=C2)cc1OC`, for which the AC50 is 3.47 µM.
Consider `O=C(c1cccc(S(=O)(=O)N2CCc3ccccc3C2)c1)N1CCN(c2ccc(O)cc2)CC1`, for which the half-maximal activity concentration (AC50) is 2.9 µM.
`Cc1snc(S(=O)(=O)/C(C#N)=N/Nc2ccc(C(F)(F)F)cc2)c1C#N`: the AC50 is 19.7 µM.
Then `Cc1c(Cl)c([N+](=O)[O-])nn1Cc1ccc(C(=O)N/N=C\c2cc(Cl)ccc2O)o1`, with 4.54 µM; and `O=C(COCC(=O)Nc1cccc(C(F)(F)F)c1)Nc1cccc(C(F)(F)F)c1`, with 7.59 µM; and `C/C(=N\NC(=O)c1cccc(Cl)c1)C1C(=O)c2ccccc2C1=O`, with 20.1 µM.
Then `CC(C)OCCCNC(=O)c1c(N)n(Cc2cccs2)c2nc3ccccc3nc12`, with 4.3 µM.
Then `O=C(NC12CC3CC(CC(C3)C1)C2)c1ccc([N+](=O)[O-])o1`, with 7.04 µM.
`OC(CNCC1CCCO1)Cn1c2ccc(Cl)cc2c2cc(Cl)ccc21` (stereo not given): the AC50 is 7.38 µM.
In the case of `Cc1cc(OCC(=O)Nc2ccc(S(=O)(=O)NC3=NCCCCC3)cc2)c(C(C)C)cc1Cl`, the AC50 is 10.2 µM.
The figure for `CC(/C=N/NC(=O)c1cc(-c2ccc(C)s2)[nH]n1)=C\c1ccccc1` is 4.35 µM.
The figure for `CCCCNc1c(-c2cccc(-c3cc(C(C)=O)cs3)c2)nc2ccc(C)cn12` is 3.48 µM; for `S=C(Nc1cccc(Cl)c1)N(CCCN1CCCC1)Cc1cccn1Cc1ccc(Cl)cc1` it is 6.86 µM; for `CCOC(=O)c1c(NC(=O)C(c2ccccc2)c2ccccc2)sc2c1C1CCN2CC1` it is 2.84 µM.
Then `O=C(/C=C/c1ccccc1)/C=C/c1ccccc1`, with 2.84 µM; and `COc1ccc(C(=O)/C=C2/C(=O)Nc3ccccc32)c(OC)c1`, with 6.75 µM.
`CCOC(=O)c1c(C)sc2c1N(C(=O)CCl)c1cc(Cl)ccc1S2`: the AC50 is 3.66 µM.
Take `CC1(C)Cc2ccccc2C(CSc2ccccc2C(=O)O)=N1`: the AC50 was 17.2 µM.
Then `CC(C)(C)OC(=O)NCc1ccc(NC(=O)c2nc[nH]c2C(=O)NCCCCNC(=O)c2[nH]cnc2C(=O)Nc2ccc(CNC(=O)OC(C)(C)C)cc2)cc1`, with 2.15 µM; and `O=C(NCc1ccco1)c1ccc2c(c1)N(Cc1ccccc1)CCS2`, with > 19.5 µM (inactive).
The figure for `COc1ccc(Nc2nc(N)c([N+](=O)[O-])c(NC3CCCCC3)n2)cc1` is 4.58 µM; for `CCC(C)c1ccc(NC(=O)C2CC3CCC2C3)cc1` (stereo not given) it is 4.98 µM; for `Cc1cccc(OCCNC(=O)c2cccc(Oc3ccc(C(F)(F)F)cc3[N+](=O)[O-])c2)c1` it is 6.38 µM.
Then `COc1ccc(Cc2nnc(N/N=C/c3ccc(O)cc3O)[nH]c2=O)cc1OC`, with 8.14 µM; and `CCN(CC)C1CCN(C(=O)c2cc(COc3ccc(F)cc3Cl)on2)C1` (stereo not given), with 15.4 µM.
As for `COc1cc(OC)cc(-c2cc3ccc(OC)cc3cn2)c1`, the AC50 was 5.43 µM.
`O=[N+]([O-])c1cccnc1N1CCC(c2cc(-c3cccc(C(F)(F)F)c3)n[nH]2)CC1`: the AC50 was 3.56 µM.
The figure for `COc1cc(-c2ccc3oc(-c4cccc(C)c4)c(C#CC4(O)CCCCC4)c3c2)cc(OC)c1OC` is 15.4 µM.
As to `COc1cc(N/N=C(\C)c2ccc(O)c(C)c2)nc(-c2ccccc2)n1`, the AC50 was 4.75 µM.
On to `O=C1Nc2ccc(Cl)cc2[C@@](C#CC2CC2)(C(F)(F)F)O1`, for which the AC50 was 7.55 µM.
Then `CC(OC(=O)c1cccs1)C(=O)NC1CCCCC1C` (stereo not given), with > 19.5 µM (inactive).
Take `C[C@@H](CSc1ccc(Br)cc1)CN1CC[C@H](C(C)(C)C)CCC1=O`: the AC50 was 3.35 µM.
Then `O=C(CSCc1cccc(Cl)c1)Nc1ccccc1-c1ccccc1`, with > 19.5 µM (inactive); and `Cc1ccc(/C=C/C(=O)N2CC(C)CC(C)C2)o1` (stereo not given), with 17 µM; and `Oc1ccccc1/C=N/Nc1nccnc1Cl`, with 5.91 µM.
Then `COC(=O)c1cc(NC(=O)c2cc(-c3ccccc3Cl)oc2C(F)(F)F)ccc1N1CCOCC1`, with 20.3 µM; and `Cc1cccc(N/N=C(\C(N)=O)C2=NC(C)(C)Cc3ccccc32)c1`, with 10.9 µM; and `c1ccc(-c2sc3ccccc3c2-c2ccc(OCCN3CCCC3)cc2)cc1`, with 2.37 µM.
The figure for `O=C(Nc1ccc(Cl)cc1)c1cc2c(cc1O)[nH]c1ccccc12` is 0.488 µM; for `COc1ccccc1C(CCNCc1ccc(N(C)C)cc1)c1ccc(OC(C)C)cc1` (stereo not given) it is 3.58 µM.
On to `O=C1NC(c2ccc(-c3ccccc3[N+](=O)[O-])o2)C(C(=O)c2ccc(Cl)cc2)C(O)(C(F)(F)F)N1` (stereo not given), for which the AC50 was 13.8 µM.
The figure for `O=C(N/N=C/c1cc([N+](=O)[O-])ccc1O)c1c[nH]c2ccccc12` is 16.5 µM; for `O=C(NCc1cccnc1)/C(=C\c1ccc(-c2cccc(Cl)c2)o1)S(=O)(=O)c1ccccc1` it is 3.13 µM; for `COc1ccc(CCNC(=O)c2coc(=O)c(Br)c2)cc1` it is 15 µM.
The figure for `Cc1ccc(NCc2ccc([N+](=O)[O-])s2)cc1` is > 19.5 µM (inactive); for `CC(=O)c1ccc(-c2ccc([C@H]3[C@H]4C=CC[C@@H](C)[C@@H]4C(=O)N3Cc3ccccc3)c(F)c2)cc1` it is 6.13 µM.
As to `CCCc1cc(-c2nc(-c3ccc(C)cc3)cs2)ccn1`, the AC50 was 5.16 µM.
Then `COCCNc1cc(-c2ccccc2)nc2cc(-c3cccc(F)c3)nn12`, with 13 µM.
